ChEMBL document CHEMBL1201862, “PubChem BioAssay data set” (2004)
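All cell lines were grown in 96-well plates and treated with compound for 48 hours. GI50 marks 50% less growth.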 The source made the active and inactive calls. Rule as the data show it: active = GI50 up to about 1.1 µM and inactive = higher.

Assays:
Assay in all cases: growth of human tumour cells (NCI), 48 h
786-0 = test system: 786-0
A498 = test system: A498
A549 = test system: A549
ACHN = test system: ACHN
BT-549 = test system: BT-549
CCRF-CEM = test system: CCRF-CEM
DU-145 = test system: DU-145
EKVX = test system: EKVX
HCT-116 = test system: HCT-116
HCT-15 = test system: HCT-15
HL-60 = test system: HL-60
HOP-62 = test system: HOP-62
HOP-92 = test system: HOP-92
HT-29 = test system: HT-29
Hs-578T = test system: Hs-578T
IGROV-1 = test system: IGROV-1
K562 = test system: K562
KM12 = test system: KM12
LOX IMVI = test system: LOX IMVI
M14 = test system: M14
MDA-MB-231 = test system: MDA-MB-231
MDA-MB-435 = test system: MDA-MB-435
MDA-N = test system: MDA-N
MOLT-4 = test system: MOLT-4
Malme-3M = test system: Malme-3M
NCI-H226 = test system: NCI-H226
NCI-H23 = test system: NCI-H23
NCI-H460 = test system: NCI-H460
NCI-H522 = test system: NCI-H522
NCI/ADR-RES = test system: NCI/ADR-RES
OVCAR-3 = test system: OVCAR-3
OVCAR-4 = test system: OVCAR-4
OVCAR-5 = test system: OVCAR-5
OVCAR-8 = test system: OVCAR-8
PC-3 = test system: PC-3
RXF 393 = test system: RXF 393
SF-268 = test system: SF-268
SF-295 = test system: SF-295
SK-MEL-28 = test system: SK-MEL-28
SK-MEL-2 = test system: SK-MEL-2
SK-MEL-5 = test system: SK-MEL-5
SN12C = test system: SN12C
SNB-19 = test system: SNB-19
SR = test system: SR
SW-620 = test system: SW-620
T47D = test system: T47D
TK-10 = test system: TK-10
U-251 = test system: U-251
UACC-257 = test system: UACC-257
UACC-62 = test system: UACC-62
UO-31 = test system: UO-31
CAKI-1 = test system: CAKI-1
COLO 205 = test system: COLO 205
HCC 2998 = test system: HCC 2998
MCF7 = test system: MCF7
SF-539 = test system: SF-539
SK-OV-3 = test system: SK-OV-3
SNB-75 = test system: SNB-75
RPMI-8226 = test system: RPMI-8226

Measured: GI50

COc1c(NC(C)=O)c2ccccc2c2ccccc12
> 100 µM: HCT-15
inactive: 786-0 > 100 µM | A498 > 100 µM | A549 > 100 µM | ACHN > 100 µM | BT-549 > 100 µM | CCRF-CEM > 100 µM | DU-145 > 100 µM | EKVX > 100 µM | HCT-116 > 100 µM | HL-60 99.5 µM | HOP-62 > 100 µM | HOP-92 42.2 µM | HT-29 > 100 µM | Hs-578T > 100 µM | IGROV-1 > 100 µM | K562 75 µM | KM12 > 100 µM | LOX IMVI > 100 µM | M14 > 100 µM | MDA-MB-231 > 100 µM | MDA-MB-435 > 100 µM | MDA-N > 100 µM | MOLT-4 66.5 µM | Malme-3M > 100 µM | NCI-H226 49.5 µM | NCI-H23 > 100 µM | NCI-H460 > 100 µM | NCI-H522 > 100 µM | NCI/ADR-RES > 100 µM | OVCAR-3 > 100 µM | OVCAR-4 > 100 µM | OVCAR-5 > 100 µM | OVCAR-8 > 100 µM | PC-3 > 100 µM | RXF 393 > 100 µM | SF-268 > 100 µM | SF-295 > 100 µM | SK-MEL-28 > 100 µM | SK-MEL-2 > 100 µM | SK-MEL-5 > 100 µM | SN12C > 100 µM | SNB-19 > 100 µM | SR > 100 µM | SW-620 > 100 µM | T47D > 100 µM | TK-10 > 100 µM | U-251 > 100 µM | UACC-257 > 100 µM | UACC-62 > 100 µM | UO-31 89.3 µM

COC(=O)/C=C1/N=C(N(C)/N=C/c2ccccc2)NC1=O
> 100 µM: HCT-15
inactive: 786-0 > 100 µM | A549 > 100 µM | BT-549 > 100 µM | CAKI-1 > 100 µM | CCRF-CEM > 100 µM | COLO 205 > 100 µM | DU-145 > 100 µM | EKVX > 100 µM | HCC 2998 > 100 µM | HCT-116 > 100 µM | HL-60 > 100 µM | HOP-62 > 100 µM | HT-29 > 100 µM | Hs-578T > 100 µM | IGROV-1 > 100 µM | K562 > 100 µM | KM12 > 100 µM | LOX IMVI > 100 µM | M14 > 100 µM | MCF7 > 100 µM | MDA-MB-231 > 100 µM | MDA-N > 100 µM | MOLT-4 > 100 µM | Malme-3M > 100 µM | NCI-H23 > 100 µM | NCI-H460 > 100 µM | NCI-H522 > 100 µM | NCI/ADR-RES > 100 µM | OVCAR-3 > 100 µM | OVCAR-4 > 100 µM | OVCAR-5 > 100 µM | OVCAR-8 > 100 µM | PC-3 > 100 µM | RXF 393 > 100 µM | SF-268 > 100 µM | SF-295 > 100 µM | SF-539 > 100 µM | SK-MEL-28 > 100 µM | SK-MEL-2 > 100 µM | SK-MEL-5 > 100 µM | SK-OV-3 > 100 µM | SN12C > 100 µM | SNB-19 > 100 µM | SNB-75 > 100 µM | SR > 100 µM | SW-620 > 100 µM | T47D > 100 µM | TK-10 > 100 µM | UACC-257 > 100 µM | UACC-62 > 100 µM | UO-31 > 100 µM

NNC(=O)CS(=O)(=O)Nc1ncccn1
> 100 µM: HCT-15
inactive: 786-0 > 100 µM | A498 > 100 µM | A549 > 100 µM | ACHN > 100 µM | BT-549 > 100 µM | CAKI-1 > 100 µM | COLO 205 > 100 µM | DU-145 > 100 µM | EKVX > 100 µM | HCT-116 > 100 µM | HOP-62 > 100 µM | HOP-92 > 100 µM | HT-29 > 100 µM | Hs-578T > 100 µM | IGROV-1 > 100 µM | K562 > 100 µM | KM12 > 100 µM | LOX IMVI > 100 µM | M14 > 100 µM | MCF7 > 100 µM | MDA-MB-231 > 100 µM | MDA-MB-435 > 100 µM | MDA-N > 100 µM | Malme-3M > 100 µM | NCI-H226 > 100 µM | NCI-H23 > 100 µM | NCI-H460 > 100 µM | NCI-H522 > 100 µM | NCI/ADR-RES > 100 µM | OVCAR-3 > 100 µM | OVCAR-4 > 100 µM | OVCAR-5 > 100 µM | OVCAR-8 > 100 µM | PC-3 > 100 µM | RPMI-8226 > 100 µM | RXF 393 > 100 µM | SF-268 > 100 µM | SF-295 > 100 µM | SF-539 > 100 µM | SK-MEL-28 > 100 µM | SK-MEL-2 > 100 µM | SK-MEL-5 > 100 µM | SK-OV-3 > 100 µM | SN12C > 100 µM | SNB-19 > 100 µM | SNB-75 > 100 µM | SW-620 > 100 µM | T47D > 100 µM | TK-10 13.2 µM | U-251 > 100 µM | UACC-257 > 100 µM | UACC-62 > 100 µM | UO-31 > 100 µM
